What all share (format): in vivo
Test [1] deals with Meloidogyne incognita. Description: Meloidogyne incognita test (sand, acetone formulation, gall formation after 14 days). The settings on record: 336 h, application rate 4 ppm, lettuce in sand, read-out: nematicidal efficacy in % (formation of galls). The method, then: Meloidouyne incognita Test Solvent: 125.0 parts by weight of acetone To produce an appropriate active ingredient formulation, 1 part by weight of active ingredient is mixed with the stated amount of solvent and the concentrate is diluted to the desired concentration with water. Vessels are filled with sand, active ingredient solution, an egg/larvae suspension of the southern root-knot nematode (Meloidogyne incognita) and lettuce seeds. The lettuce seeds germinate and the plants develop. The galls develop on the roots. After 14 days, the nematicidal efficacy in % is determined by the formation of galls. 100% means that no galls were found; 0% means that the number of galls on the treated plants corresponds to the untreated control.

Test [2] has as its system Meloidogyne incognita. The experiment in a line: Meloidogyne incognita test (soil drench, gall formation after 21 days). The settings on record: 504 h, lettuce, read-out: nematicidal efficacy in % (formation of galls); for pest or weed control at 0.125 ppm: application rate 0.125 ppm; for pest or weed control at 0.25 ppm: application rate 0.25 ppm; for pest or weed control at 1 ppm: application rate 1 ppm. The method, then: (§1) Meloidogyne incognita Test Solvent: 7 parts by weight of dimethylformamide Emulsifier: 2.5 parts by weight of alkylaryl polyglycol ether To produce a suitable active ingredient formulation, 1 part by weight of active ingredient is mixed with the specified amounts of solvent and emulsifier, and the concentrate is diluted with water to the desired concentration, it being necessary to take account of the volume of soil which is drenched. It should be ensured that a concentration of 20 ppm of emulsifier in the soil is not exceeded. To produce further test concentrations, water is used for dilution. Pots filled with soil (loamy sand) are watered with the active ingredient solution. An egg/larvae suspension of the southern root-knot nematode (Meloidogyne incognita) is added, lettuce seeds are scattered over the surface of the soil, and they are covered over with quartz sand. The lettuce seeds germinate and the plants develop. The galls develop on the roots. After 21 days, the nematicidal efficacy in % is determined by the formation of galls. 100% means that no galls have been found; 0% means that the number of galls on the treated plants corresponds to the untreated control.

The test system of test [3] is Meloidogyne incognita. The experiment in a line: Meloidogyne incognita test (MELGIN), comparison with prior art. The settings on record: 504 h, after 21 days. The method, then:
as §1, with “Test (MELGIN)” for “Test”

For the next test, the system named is Heterodera pallida. Description: Heterodera pallida - soil mixing test (HETDPA). The settings on record: Globodera pallida, 1008 h, cysts on potato roots after six weeks, Abbott formula, read-out: % Efficacy. The procedure:
Heterodera pallida-Soil Mixing Test ([…]) Solvent: 4 parts by weight of acetone Emulsifier: 1 part by weight of alkylaryl polyglycol ether To produce a suitable preparation of active ingredient, 1 part by weight of active ingredient is mixed with the stated amounts of solvent and emulsifier, and the concentrate is diluted with water to the desired concentration. This active ingredient formulation is mixed with soil (loamy sand). The stated concentration refers to the amount of active ingredient per volume unit of soil (ppm=mg/l). 40 cysts of the white potato nematode (Heterodera pallida, 250-275 larvae/cysts) are introduced into 500 ml of this active ingredient soil and mixed. The mixture is introduced into pots and planted in each case with a one-week-old potato seedling (Solanum tuberosum). After six weeks, the potato roots are checked for cysts and the average number per pot is calculated as efficacy by the Abbott formula: [formula] B=treated plants K=untreated control plants

These results are taken from US20220380318A1, “SUBSTITUTED SULFONYL AMIDES FOR CONTROLLING ANIMAL PESTS” (Bayer Aktiengesellschaft, priority 2019, published 2022).

Regarding `COc1ccc(Cl)c(S(=O)(=O)NC(=O)c2nc(Cl)n([C@H]3C[C@@H]3C(F)(F)F)c2Br)c1` (racemic) [I-01], the pest or weed control at 4 ppm in the test with Meloidogyne incognita [1] is 100%. Further, in the test on Meloidogyne incognita [2], the pest or weed control at 0.125 ppm is 90%, the pest or weed control at 0.25 ppm worked out at 97% and the pest or weed control at 1 ppm turned out to be 100%. Also, the Emax at 0.015625 ppm with Meloidogyne incognita [3] (read-out: % Efficacy) was 58.3%. Besides, the nematicidal efficacy (% gall reduction) at 0.03125 ppm in the test with Meloidogyne incognita [3] was found to be 95%. Also, in the test with Heterodera pallida, the Emax at 0.25 ppm amounted to 75%, the Emax at 0.5 ppm was found to be 90% and the Emax at 1 ppm worked out at 100%.

On to `O=C(NS(=O)(=O)c1cc(Cl)ccc1Cl)c1nc(Cl)n([C@H]2C[C@@H]2C(F)(F)F)c1Br` (racemic) [I-02], for which the pest or weed control at 4 ppm in the test on Meloidogyne incognita [1] came out at 100%. Also, in the test on Meloidogyne incognita [2], the pest or weed control at 0.125 ppm came to 90%, the pest or weed control at 0.25 ppm amounted to 90% and the pest or weed control at 1 ppm was determined as 100%.

In the case of `Cc1ccccc1S(=O)(=O)NC(=O)c1nc(Cl)n([C@H]2C[C@@H]2C(F)(F)F)c1Br` (racemic) [I-03], the pest or weed control at 4 ppm with Meloidogyne incognita [1] was 100%. For the same compound, in the test with Meloidogyne incognita [2], the pest or weed control at 0.125 ppm amounted to 90%, the pest or weed control at 0.25 ppm came to 100% and the pest or weed control at 1 ppm was found to be 100%.

With `CCOc1ccc(Cl)c(S(=O)(=O)NC(=O)c2nc(Cl)n([C@H]3C[C@@H]3C(F)(F)F)c2Br)c1` (racemic) [I-04], the pest or weed control at 4 ppm in the test on Meloidogyne incognita [1] came out at 100%. In the test on Meloidogyne incognita [2], the pest or weed control at 0.125 ppm is 90%, the pest or weed control at 0.25 ppm was determined as 100% and the pest or weed control at 1 ppm was 100%. Moreover, the nematicidal efficacy (% gall reduction) at 0.03125 ppm in the test with Meloidogyne incognita [3] turned out to be 97%.

For `COc1ccc(Br)c(S(=O)(=O)NC(=O)c2nc(Cl)n([C@H]3C[C@@H]3C(F)(F)F)c2Br)c1` (racemic) [I-05], the pest or weed control at 4 ppm in the test with Meloidogyne incognita [1] was found to be 100%. Besides, in the test with Meloidogyne incognita [2], the pest or weed control at 0.125 ppm stood at 100%, the pest or weed control at 0.25 ppm amounted to 100% and the pest or weed control at 1 ppm worked out at 100%.

Consider `COc1ccc(Cl)c(S(=O)(=O)NC(=O)c2nc(Br)n([C@H]3C[C@@H]3C(F)(F)F)c2Br)c1` (racemic) [I-06], for which, in the test on Meloidogyne incognita [1], the pest or weed control at 4 ppm is 100%. In the test with Meloidogyne incognita [2], the pest or weed control at 0.125 ppm was 100%, the pest or weed control at 0.25 ppm was found to be 100% and the pest or weed control at 1 ppm came to 100%. Besides, in the test with Meloidogyne incognita [3] (read-out: % Efficacy), the Emax at 0.015625 ppm is 65%. In addition, in the test on Meloidogyne incognita [3], the nematicidal efficacy (% gall reduction) at 0.03125 ppm was 92.5%.

Take `COc1ccc(Br)c(S(=O)(=O)NC(=O)c2nc(Br)n([C@H]3C[C@@H]3C(F)(F)F)c2Br)c1` (racemic) [I-07]: the pest or weed control at 4 ppm in the test on Meloidogyne incognita [1] stood at 100%. In addition, in the test on Meloidogyne incognita [2], the pest or weed control at 0.125 ppm is 100%, the pest or weed control at 0.25 ppm came out at 100% and the pest or weed control at 1 ppm amounted to 100%. Moreover, the Emax at 0.03125 ppm with Meloidogyne incognita [3] (read-out: % Efficacy) was determined as 90%. The nematicidal efficacy (% gall reduction) at 0.0625 ppm in the test with Meloidogyne incognita [3] (0.0625 ppm) stood at 100%. In the test with Meloidogyne incognita [3], the nematicidal efficacy (% gall reduction) at 0.125 ppm was found to be 100%.

`Cc1ccccc1S(=O)(=O)NC(=O)c1nc(Br)n([C@H]2C[C@@H]2C(F)(F)F)c1Br` (racemic) [I-08]: the pest or weed control at 4 ppm with Meloidogyne incognita [1] is 100%. Also, in the test on Meloidogyne incognita [2], the pest or weed control at 0.25 ppm was found to be 100% and the pest or weed control at 1 ppm was found to be 100%.

Regarding `CCOc1ccc(Cl)c(S(=O)(=O)NC(=O)c2nc(Br)n([C@H]3C[C@@H]3C(F)(F)F)c2Br)c1` (racemic) [I-09], in the test on Meloidogyne incognita [1], the pest or weed control at 4 ppm came out at 100%. In the test on Meloidogyne incognita [2], the pest or weed control at 0.125 ppm came out at 90%, the pest or weed control at 0.25 ppm was 100% and the pest or weed control at 1 ppm is 100%.

Turning to `O=C(NS(=O)(=O)c1cc(OCC(F)F)ccc1Cl)c1nc(Br)n([C@@H]2C[C@H]2C(F)(F)F)c1Br` (racemic) [I-10], in the test with Meloidogyne incognita [1], the pest or weed control at 4 ppm came to 100%. In the test with Meloidogyne incognita [2], the pest or weed control at 0.125 ppm amounted to 100%.

As to `O=C(NS(=O)(=O)c1cc(OCC(F)F)ccc1Cl)c1nc(Cl)n([C@@H]2C[C@H]2C(F)(F)F)c1Br` (racemic) [I-11], the pest or weed control at 4 ppm in the test with Meloidogyne incognita [1] is 100%. In addition, in the test on Meloidogyne incognita [2], the pest or weed control at 0.125 ppm stood at 98%.

As for `COc1ccc(Cl)c(S(=O)(=O)NC(=O)c2nc(Br)n([C@H]3C[C@@H]3C(F)(F)F)c2Cl)c1` (racemic) [I-12], the pest or weed control at 4 ppm in the test on Meloidogyne incognita [1] was determined as 100%. In the test on Meloidogyne incognita [2], the pest or weed control at 0.125 ppm amounted to 100%. The compound further yielded a nematicidal efficacy (% gall reduction) at 0.125 ppm with Meloidogyne incognita [3] of 100%.

With `O=C(NS(=O)(=O)c1ccccc1Cl)c1nc(Br)n([C@@H]2C[C@H]2C(F)(F)F)c1Cl` (racemic) [I-13], the pest or weed control at 4 ppm in the test with Meloidogyne incognita [1] came out at 100%. In the test with Meloidogyne incognita [2], the pest or weed control at 1 ppm amounted to 80%. In the test on Meloidogyne incognita [3], this compound displayed a nematicidal efficacy (% gall reduction) at 0.5 ppm of 70%.

On to `O=C(NS(=O)(=O)c1ccccc1Cl)c1nc(Br)n(CCC(F)(F)F)c1Cl` [Ex. I-440, reference compound], for which, in the test on Meloidogyne incognita [3], the nematicidal efficacy (% gall reduction) at 0.125 ppm was 0% and the nematicidal efficacy (% gall reduction) at 0.5 ppm is 0%.

In the test with Meloidogyne incognita [3], `CCOc1ccc(Cl)c(S(=O)(=O)NC(=O)c2nc(Cl)n([C@@H]3C[C@H]3C(F)(F)F)c2Cl)c1` [Ex. I-459, reference compound] registered a nematicidal efficacy (% gall reduction) at 0.03125 ppm of 10%.

Take `COc1ccc(Br)c(S(=O)(=O)NC(=O)c2nc(Cl)n([C@@H]3C[C@H]3C(F)(F)F)c2Cl)c1` [Ex. I-465, reference compound]: the Emax at 0.03125 ppm in the test with Meloidogyne incognita [3] (read-out: % Efficacy) came to 0%. The Emax at 0.0625 ppm in the test with Meloidogyne incognita [3] (0.0625 ppm, read-out: % Efficacy) came to 25%. Further, the nematicidal efficacy (% gall reduction) at 0.125 ppm in the test on Meloidogyne incognita [3] worked out at 95%.

Regarding `COc1ccc(Cl)c(S(=O)(=O)NC(=O)c2nc(Cl)n([C@@H]3C[C@H]3C(F)(F)F)c2Cl)c1` [Ex. I-470, reference compound], in the test on Meloidogyne incognita [3] (read-out: % Efficacy), the Emax at 0.015625 ppm is 0%. This compound also registered a nematicidal efficacy (% gall reduction) at 0.03125 ppm in the test with Meloidogyne incognita [3] of 48%. Besides, in the test on Heterodera pallida, the Emax at 0.25 ppm worked out at 0%, the Emax at 0.5 ppm was 0% and the Emax at 1 ppm amounted to 70%.
